# Reference: US9359418B2, “Inhibitors of the T cell-specific alternative p38 activation pathway and methods of use” (The United States of America, as represented by the …, priority 2012, dated 2016)
# Tests used:
# [1] = system: T cells; test: Inflammatory cytokine production by T cells (flow cytometry); format: cell-based
# Excerpt: FIGS. 4A-4B are a series flow cytometry plots showing inflammatory cytokine secretion by CD4^+ (FIG. 4A) and CD8^+ (FIG. 4B) T cells. T cells were purified from spleen and stimulated with anti-CD3 plus anti-CD28 for 3 days. Cells were then left unstimulated overnight and treated with the indicated concentrations of (11R)-71-85, control peptide (11R)-Ctrl, or DMSO (no peptide). After treatment, cells were restimulated with either anti-CD3 plus anti-CD28, or PMA plus ionomycin supplemented with monensin. Cytokine expression was measured by flow-cytometry.
# To evaluate cytokine production, T cells were purified from spleen and stimulated with anti-CD3 plus anti-CD28 for 3 days. Cells were then left unstimulated overnight and treated with 1 or 2 μM (11R)-71-85 or control peptide (11R)-Ctrl, or with DMSO only. After treatment, cells were restimulated with either anti-CD3 plus anti-CD28 (to stimulate the TCR and the alternative p38 pathway), or PMA plus ionomycin supplemented with monensin (to stimulate the classical p38 pathway). Cytokine expression was measured by flow-cytometry.
# [2] = system: Nfatc1 and Irf4 mRNA; test: Nfatc1 and Irf4 mRNA in spleen T cells after i.v. injection; format: in vivo, mice; details: 50 μg i.v.; total T cells and CD4+ T cells from spleen
# Method: FIG. 8 is a series of graphs showing reduction in expression of Nfatc1 and Irf4 in CD4^+ T cells following injection of (11R)-71-85. WT C57BL/6 mice were injected i.v. with 50 μg of DMSO, (11R)-Scrambled, or (11R)-71-85 and either total T cells or CD4±T cells were purified from spleen at different times. Purified cells were stimulated in vitro with anti-CD3/CD28 for 24 hours and the mRNA levels of the indicated transcription factors were determined by quantitative real-time PCR.
# Expression of NFATc1 and IRF4, two transcription factors activated upon TCR stimulation, was also evaluated after intravenous (i.v.) injection of (11R)-71-85. WT C57BL/6 mice were injected i.v. with 50 μg of DMSO, (11R)-Scrambled, or (11R)-71-85, and either total T cells or CD4±T cells were purified from spleen at different times. Purified cells were stimulated in vitro with anti-CD3/CD28 for 24 hours and the mRNA levels of Nfatc1 and Irf4 were determined by quantitative real-time PCR.
# [3] = system: tumor-infiltrating T cells; test: KPC mice, intracellular TNF-α of tumor infiltrating cells after intraperitoneal injection; format: in vivo; details: 80 μg intraperitoneal every other day for 1 month
# Method: FIG. 12 is a panel of flow cytometry plots showing that intraperitoneal injection of (11R)-71-85 inhibits TNF-α secretion from tumor-infiltrating T cells from KPC mice. KPC mice are genetically engineered to develop pancreatic cancer because of oncogene expression and p53 haploinsufficiency. KPC mice received intraperitoneal injections of 80 μg of either (11R)-71-85 or (11R)-Scrambled every other day for 1 month. Twenty-four hours after the last injection, tumor infiltrating cells were harvested and restimulated with PMA and ionomycin, or left unstimulated, in the presence of Golgi inhibitor for 4 hours. Expression of intracellular TNF-α was determined by flow cytometry.
# A second murine model of pancreatic cancer was used to evaluate the effect of (11R)-71-85 on cytokine secretion by tumor cells. KPC mice are genetically engineered to develop pancreatic cancer because of oncogene expression and p53 haploinsufficiency. KPC mice were administered 80 μg of either (11R)-71-85 or (11R)-Scrambled by intraperitoneal injection every other day for 1 month. Twenty-four hours after the last injection, tumor infiltrating cells were harvested and restimulated with PMA and ionomycin, or left unstimulated, in the presence of Golgi inhibitor for 4 hours. Expression of intracellular TNF-α was determined by flow cytometry (FIG. 12).
# [4] = system: tumor-infiltrating T cells; test: PANC02 model, cytokine expression of tumor infiltrating cells; format: in vivo, mice; details: 80 μg intra-tumor every other day for 1 week
# Method: WT C57BL/6 mice were injected with 7.5×10^5 PANC02 cells. After 16 days, mice were injected with 80 μg of either (11R)-71-85 or (11R)-Scrambled (Scr) every other day for 1 week. Twenty-four hours after the last intra-tumor injection, tumor infiltrating cells were harvested and restimulated with PMA and ionomycin, or left unstimulated, in the presence of Golgi inhibitor for 4 hours. Expression of cytokines (IL-17A and TNFα—FIG. 10A; IL-10 and IFNγ—FIG. 10B) was determined by flow cytometry.
# The effect of intra-tumor injection of (11R)-71-85 on cytokine secretion from tumor-infiltrating T cells was also evaluated in mice with pancreatic tumors. WT C57BL/6 mice were injected with 7.5×10^5 PANC02 cells and 16 days later mice received intra-tumor injections of 80 μg of (11R)-71-85 or (11R)-Scrambled every other day for 1 week. Twenty-four hours following the last injection, tumor infiltrating cells were harvested and restimulated with PMA and ionomycin, or left unstimulated, in the presence of Golgi inhibitor for 4 hours. Expression of TNF-α, IFNγ, IL-10 and IL-17 was determined by flow cytometry. […] There was no difference in TNF-α secretion after restimulation, which bypasses TCR signaling and activates the classical MAPK cascade. There was no difference between unstimulated and restimulated cells for the other cytokines tested (IFNγ, IL-10, and IL-17; FIGS. 10A-10B).
# [5] = system: T cells; test: T cell proliferation after anti-CD3 and anti-CD28 stimulation; format: cell-based; details: 0.2, 0.5, 1.0, 2.0 or 4.0 μg; anti-CD3 and anti-CD28 for 2 days
# Method: FIG. 3 is a graph showing T cell proliferation in response to (11R)-71-85. T cells were purified from spleen and treated with different concentrations of (11R)-71-85 or control peptide (11R)-Ctrl. Cells were then washed and stimulated with anti-CD3 and anti-CD28 for 2 days and finally pulsed with 1 μCi [^3H]-thymidine 14 hours before harvesting. [^3H]-thymidine uptake was determined with a Wallac 1450 MicroBeta Liquid Scintillation Counter.
# The ability of (11R)-71-85 to inhibit T cell proliferation and inflammatory cytokine production was also evaluated. T cells were purified from spleen and treated with different concentrations (0.2, 0.5, 1.0, 2.0 or 4.0 μg) of (11R)-71-85 or the control peptide (11R)-Ctrl. Cells were then washed and stimulated with anti-CD3 and anti-CD28 for 2 days and finally pulsed with 1 μCi [^3H]-thymidine 14 hours before harvesting. [^3H]-thymidine uptake was determined with a Wallac 1450 MicroBeta Liquid Scintillation Counter.
substance,measurement,setting,value
"(11R)-71-85: fusion protein: 11 arginine residues added to the N-terminus of the Gadd45α 71-85 peptide (LQIHFTLIQAFCCEN; N-terminal 11 arginine; UniProt P24522 71-85, looked up, fragment)","inhibition of production of TNF-α and IFN-γ, 2 μM compared with 1 μM",[1]; 2 μM versus 1 μM,to a greater extent
same,cytokine production in response to PMA plus ionomycin,"[1]; 1 or 2 μM, restimulated with PMA plus ionomycin",no significant effect
same,production of TNF-α in response to TCR stimulation,"[1]; 1 or 2 μM, restimulated with anti-CD3 plus anti-CD28",inhibits
same,Irf4 mRNA expression following TCR stimulation,[2],inhibits
same,Nfatc1 mRNA expression following TCR stimulation,[2],inhibits
same,TNF-α secretion by tumor-infiltrating T cells,[3],inhibits
same,"expression of the other cytokines tested (IFNγ, IL-10, and IL-17)",[4]; unstimulated and restimulated cells,no difference
same,TNF-α secretion after restimulation with PMA and ionomycin,[4]; versus (11R)-Scrambled,no difference
same,"TNF-α secretion, unstimulated tumor infiltrating cells",[4]; versus (11R)-Scrambled,reduced
same,T cell proliferation ([3H]-thymidine uptake) in response to TCR stimulation,[5],dose-dependent decrease
